Assay results from BindingDB's records for doi:10.1021/acsmedchemlett.1c00445 (Janssen Research & Development, 2022).

Assay: Inhibition of human amyloid beta (1 to 42) in human SKNBE2 cells expressing wild-type amyloid precursor protein hAPP695 incubated for 18 hrs by sandwich ELISA

Compound | IC50 [nM]
C[C@@]1(c2cc(NC(=O)c3ccc(F)cn3)ccc2F)Cn2nc(C#N)cc2C(N)=N1 | 2.6
COc1cnc(C(=O)Nc2ccc(F)c([C@]3(C)Cn4nc(C#N)cc4C(N)=N3)c2)cn1 | 1.3
C[C@@]1(c2cc(NC(=O)c3ccc(F)cn3)ccc2F)Cn2c(C#N)cnc2C(N)=N1 | 13
COc1cnc(C(=O)Nc2ccc(F)c([C@]3(C)Cn4c(C#N)cnc4C(N)=N3)c2)cn1 | 6.3
Cc1nc(C(=O)Nc2ccc(F)c([C@]3(C)Cn4nc(C#N)cc4C(N)=N3)c2)co1 | 4.8
C[C@@]1(c2cc(NC(=O)c3ccc(OC(F)F)cn3)ccc2F)Cn2nc(C#N)cc2C(N)=N1 | 1

Further lines, results first:

IC50 [nM] | Compound
3.6 | C[C@@]1(c2cc(NC(=O)c3ccc(Cl)cn3)ccc2F)Cn2c(C#N)cnc2C(N)=N1
2.5 | C[C@@]1(c2cc(NC(=O)c3cnc(C(F)F)cn3)ccc2F)Cn2nc(C#N)cc2C(N)=N1
1.2 | C[C@@]1(c2cc(NC(=O)c3cnc(OCF)cn3)ccc2F)Cn2nc(C#N)cc2C(N)=N1
8.5 | C[C@@]1(c2cc(NC(=O)c3ccc(C#N)cn3)ccc2F)Cn2cc(C#N)nc2C(N)=N1
3.3 | C[C@@]1(c2cc(NC(=O)c3ccc(C#N)cn3)ccc2F)Cn2c(C#N)cnc2C(N)=N1
1 | C[C@@]1(c2cc(NC(=O)c3ccc(C#N)cn3)ccc2F)Cn2nc(C#N)cc2C(N)=N1
